Data set [1] addresses Lysine-specific histone demethylase 1A (Homo sapiens, UniProt O60341). Nature of the data set: Inhibition of full length recombinant LSD1 (unknown origin) expressed in Escherichia coli BL21(DE3) using H3K4me2 as substrate after 30 mins in presence of FAD by amplex red reagent based fluorescence assay.
The target in data set [2] is Bromodomain-containing protein 4 (Homo sapiens) (UniProt O60885). Nature of the data set: Inhibition of BRD4 (unknown origin) at 25 uM relative to control.
The test system of data set [3] is MGC-803. Nature of the data set: Antiproliferative activity against human MGC803 cells after 72 hrs by MTT assay. Conditions: MGC-803, 72 h.
In data set [4] the test system is MGC-803. Description: Ratio of IC50 for LSD1 knock down human MGC803 cells to IC50 for human MGC803 cells. Format: functional.
In data set [5] the target is Indoleamine 2,3-dioxygenase 1 (Homo sapiens, UniProt P14902). Nature of the data set: Inhibition of IDO1 (unknown origin).
Indoleamine 2,3-dioxygenase 1, sequence (P14902 whole entry): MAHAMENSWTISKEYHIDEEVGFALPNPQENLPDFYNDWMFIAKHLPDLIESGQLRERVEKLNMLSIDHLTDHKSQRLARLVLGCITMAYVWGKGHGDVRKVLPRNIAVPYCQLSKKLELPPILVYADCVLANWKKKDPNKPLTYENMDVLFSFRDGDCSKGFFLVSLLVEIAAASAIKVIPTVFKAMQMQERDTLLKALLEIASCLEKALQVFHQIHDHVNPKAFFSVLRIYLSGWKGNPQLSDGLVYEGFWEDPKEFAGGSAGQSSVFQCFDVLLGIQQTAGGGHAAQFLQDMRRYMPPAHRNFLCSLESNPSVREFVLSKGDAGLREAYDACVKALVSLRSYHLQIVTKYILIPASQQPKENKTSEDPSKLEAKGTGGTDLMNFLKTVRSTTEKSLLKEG
Data set [6] concerns MGC-803. Nature of the data set: Antiproliferative activity against LSD1 knock down human MGC803 cells after 72 hrs by MTT assay. The format is functional, cell-based. The following applies: MGC-803, 72 h. (In general: Formazan colour is commonly taken as a measure of viable cells.)
Data set [7] addresses T1, MAO-B (Homo sapiens, UniProt P27338).
T1 sequence (P27338 whole entry): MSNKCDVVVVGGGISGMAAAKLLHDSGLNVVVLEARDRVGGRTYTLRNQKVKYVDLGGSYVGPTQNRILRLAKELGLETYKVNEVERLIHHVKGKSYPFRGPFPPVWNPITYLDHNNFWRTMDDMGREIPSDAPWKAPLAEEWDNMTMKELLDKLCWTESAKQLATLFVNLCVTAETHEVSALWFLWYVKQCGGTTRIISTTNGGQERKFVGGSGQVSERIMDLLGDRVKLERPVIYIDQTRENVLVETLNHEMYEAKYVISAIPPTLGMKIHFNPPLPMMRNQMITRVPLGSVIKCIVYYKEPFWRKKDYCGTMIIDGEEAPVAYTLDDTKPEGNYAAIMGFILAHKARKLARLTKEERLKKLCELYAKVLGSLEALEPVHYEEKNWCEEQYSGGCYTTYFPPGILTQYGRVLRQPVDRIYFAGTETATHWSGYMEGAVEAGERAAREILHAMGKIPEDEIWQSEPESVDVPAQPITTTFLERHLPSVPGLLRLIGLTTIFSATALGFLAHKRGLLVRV
Description: Inhibition of full length recombinant FLAG-tagged human MAO-B expressed in baculovirus infected sf9 cells at 1 uM preincubated for 15 mins followed by luciferin derived substrate addition measured after 60 mins by luciferase reporter gene assay relative to control. The following applies: probe luciferin derived substrate. (In general: In a reporter assay the amount or activity of a reporter protein is the signal.)

In data set [8] the target is T1, MAO-B. Nature of the data set: Inhibition of full length recombinant FLAG-tagged human MAO-B expressed in baculovirus infected sf9 cells at 0.1 uM preincubated for 15 mins followed by luciferin derived substrate addition measured after 60 mins by luciferase reporter gene assay relative to control. The following applies: probe luciferin derived substrate.
Data set [9] deals with T2, MAO-A (Homo sapiens, UniProt P21397).
T2 sequence (P21397 whole entry): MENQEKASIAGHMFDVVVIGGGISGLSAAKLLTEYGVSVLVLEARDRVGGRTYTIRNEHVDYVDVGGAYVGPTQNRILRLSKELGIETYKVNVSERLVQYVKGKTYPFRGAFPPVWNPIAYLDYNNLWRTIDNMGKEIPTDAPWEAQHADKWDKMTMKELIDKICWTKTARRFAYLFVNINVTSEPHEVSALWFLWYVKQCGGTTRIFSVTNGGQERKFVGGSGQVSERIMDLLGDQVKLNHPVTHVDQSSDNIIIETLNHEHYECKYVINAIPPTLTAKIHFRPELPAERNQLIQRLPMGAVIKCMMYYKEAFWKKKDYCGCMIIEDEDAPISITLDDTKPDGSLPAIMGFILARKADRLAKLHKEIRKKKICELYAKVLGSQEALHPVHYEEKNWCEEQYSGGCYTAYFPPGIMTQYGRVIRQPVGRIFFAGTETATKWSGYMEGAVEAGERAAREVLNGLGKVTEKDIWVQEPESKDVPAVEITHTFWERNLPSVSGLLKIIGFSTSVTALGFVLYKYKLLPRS
Description: Inhibition of full length recombinant FLAG-tagged human MAO-A expressed in baculovirus infected sf9 cells at 0.1 uM preincubated for 15 mins followed by luciferin derived substrate addition measured after 60 mins by luciferase reporter gene assay relative to control. The following applies: probe luciferin derived substrate.

The target in data set [10] is T2, MAO-A. Description: Inhibition of full length recombinant FLAG-tagged human MAO-A expressed in baculovirus infected sf9 cells at 1 uM preincubated for 15 mins followed by luciferin derived substrate addition measured after 60 mins by luciferase reporter gene assay relative to control. Conditions: probe luciferin derived substrate.

For `CCCn1c(SCc2ccc(Cl)cc2)nc2c1c(=O)[nH]c(=O)n2C`, the IC50 (as a rule, the concentration that inhibits the measured activity by half) in data set [1] amounted to 25.7 µM.

As for `CCCn1c(SCc2ccc(F)cc2)nc2c1c(=O)[nH]c(=O)n2C`, the inhibition – broadly, the percentage by which the read-out fell short of the control – in data set [2] turned out to be 49%. Moreover, the IC50 was found to be 0.687 µM in the data set on MGC-803 [3], 96.9 µM in data set [5], 2.02 µM in the data set on MGC-803 [6] and 14.2 µM in data set [1]. The “Ratio IC50” value in the data set on MGC-803 [4] is reported as 2 - 3.

Turning to `CCCn1c(S)nc2c1c(=O)[nH]c(=O)n2C`, the IC50 in data set [1] was 6.45 µM.

For the compound `CCCn1c(SCc2cccc(C)c2)nc2c1c(=O)[nH]c(=O)n2C`, in data set [2], the inhibition was found to be 52%. Besides, the IC50 in the data set on MGC-803 [3] was determined as 2.46 µM; in [5], 96.9 µM; in the data set on MGC-803 [6], 4.97 µM; in data set [1] it was 8.89 µM. The inhibition at 1 h, 1 µM on MAO-B [7] is 61%; at MAO-A [10], 20%. For the same compound, the inhibition at 1 h, 0.1 µM at MAO-B [8] came to 16%; at MAO-A [9], 9%. Moreover, the “Ratio IC50” value in the data set with MGC-803 [4] is reported as 2 - 3.

Source of the values: ChEMBL document CHEMBL4325908, “Ligand-based design, synthesis and biological evaluation of xanthine derivatives as LSD1/KDM1A inhibitors” (Eur J Med Chem, 2019).
